Laboratory results as given in patent US7625879B2 (priority 1998, dated 2009).
Where a name gives a salt, the structure may show the parent alone.

What was measured:
[1] = test system: Tγ9δ2 lymphocytes; assay: Stimulation of the proliferation of Tγ9δ2 lymphocytes in a culture; type: cell-based, human; conditions: effective dose at 50% of the maximum polyclonal lymphocyte amplification effect; 8 days culture with hIL-2; read-out: ED 50% (the source's name)
Procedure: 20 microliters of the aqueous solution of the compound according to the invention adjusted to the final concentration specified in the test are added to an in vitro culture of 10^6 total T lymphocytes in 1 ml, separated from the blood of a healthy adult human donor and initially containing 1-5% of Tγ9δ2 lymphocytes, in an adequate culture medium (RPMI 1640+10% of inactivated human serum and 50 U/ml of human interleukin-2 (hIL-2)). After culturing for 4 days, 50 U of dIL-2 are added per milliliter of culture medium. After 8 days, the cells are counted, collected, washed with phosphate buffer, and the Tγ9δ2 type cells are detected in the culture by labeling with conventional commercial reagents (fluorescein-labeled monoclonal antibodies) and the proportion thereof determined by flux cytometry analysis. The parameter measured is either the change in the proportion of or the increase in the number of Tγ9δ2 cells in cultures in the presence of the compound according to the invention in comparison with cultures not containing a compound according to the invention.

[2] = test system: Tγ9δ2 lymphocytes; assay: In vivo bioactivity in the macaque: Tγ9δ2 lymphocytes in the blood; set-up: species or system Macaca fascicularis; conditions: for % of Tγ9δ2 lymphocytes in the blood in vivo (7 days after injection): animals injected BrHPP only
Procedure: (§1) These tests are performed on monkeys of the species Macaca fascicularis (males weight 3-4 kg) anaesthetized with 15 mg/kg Zoletil (zolazepam)®/0.01 mg/kg atropine. The batches of BrHPP (in NA^+ form) are subjected to prior purity testing (>99%), quantified and have been tested in accordance with the pyrogenicity tests of Example 12. The animals are injected by rapid intravenous injection (2-5 minutes into the saphenous vein) with 0.1 mg/kg of BrHPP (i.e. 0.3-0.4 mg per animal) diluted in 10 ml of Ringer lactate. Each animal also receives a subcutaneous injection of 90,000 units of interleukin-2 (IL-2). These injections are performed once daily for four days. Control animals receive only the subcutaneous injection of IL-2 once daily for four days.
(§2) The proportion of Tγ9δ2 lymphocytes in total lymphocytes in the various animals is compared in the following three situations: • in the animal's bloodstream, • in a culture of total lymphocytes taken from the animal receiving only BrHPP, • in a culture of total lymphocytes talken from the animal receiving BrHPP+IL-2.

[3] = test system: Tγ9δ2 lymphocytes; assay: Reactivity ex vivo of Tγ9δ2 lymphocytes from injected macaques in culture; type: cell-based, Macaca fascicularis
Procedure: as §1, §2

[4] = Toxicity of BrHPP (sodium salt) in mice, intravenous injection; type: in vivo
Procedure: Eight 30 g mice received an intravenous injection (caudal vein) of 300 μl of PBS buffer containing 1 mg of BrHPP (sodium salt). […] Toxicity is thus less than 12.5% for a dose of 33.4 mg of BrHPP (Na^+) per kilogram of animal body weight.

[5] = Pyrogenicity in rabbits (ISO-10993-11, USP XXIII); type: in vivo
Procedure: This test is performed in accordance with a protocol specified by standards ISO-10993-11 (1993) and USP XXIII. […] Temperature is taken every 30 minutes for 3 hours starting 30 minutes after the injection.

[6] = test system: human Tγ9δ2 lymphocytes; conditions: cited from earlier work
[7] = test system: Tγ9δ2 lymphocyte clone; assay: Stimulation of induced cytotoxicity of a Tγ9δ2 lymphocyte clone
[8] = animals injected BrHPP only, twice (1 injection + 1 booster)

3-(bromomethyl)-3-butanol-1-yl diphosphate [BrHPP]
EC50 [1]: 10 nM
% of Tγ9δ2 lymphocytes in the blood in vivo (7 days after injection) ([2]; i.v. 0.1 mg/kg, Na+ form): ~1%
% of Tγ9δ2 lymphocytes in the blood in vivo (7 days after injection) ([2]; twice (1 injection + 1 booster)): ~1%
effect on the monkey's Tγ9δ2 lymphocytes in vivo ([2]; intravenous injection of BrHPP in the presence of subcutaneous IL-2): preactivates these same cells and brings about the growth thereof in vivo
effect on the monkey's Tγ9δ2 lymphocytes in vivo ([2]; single or repeated intravenous injection of BrHPP alone): preactivates the monkey's Tγ9δ2 lymphocytes, but does not stimulate the growth thereof in the animal
Reactivity ex vivo of Tγ9δ2 lymphocytes (% after 10 days' culturing in vitro), Amplification by 40 nM BrHPP ([3]; animals injected BrHPP + IL-2): 10%
Reactivity ex vivo of Tγ9δ2 lymphocytes (% after 10 days' culturing in vitro), Amplification by 40 nM BrHPP + IL-2 ([3]; animals injected BrHPP + IL-2): 50.0%
Reactivity ex vivo of Tγ9δ2 lymphocytes (% after 10 days' culturing in vitro), Amplification by 40 nM BrHPP ([3]; animals injected BrHPP only): 1%
Reactivity ex vivo of Tγ9δ2 lymphocytes (% after 10 days' culturing in vitro), Amplification by 40 nM BrHPP [3, 8]: 1%
Reactivity ex vivo of Tγ9δ2 lymphocytes (% after 10 days' culturing in vitro), Amplification by 40 nM BrHPP + IL-2 [3, 8]: 40.2%

3-(chloromethyl)-3-butanol-1-yl diphosphate [CIHPP]
EC50 [1]: 100 nM

3-(iodomethyl)-3-butanol-1-yl diphosphate [IHPP]
EC50 [1]: 3 nM

CC(O)(CBr)CCOP(=O)(O)OP(=O)(O)O (stereo not shown) [BrHPP (sodium salt), 3-(bromomethyl)-3-butanol-1-yl diphosphate]
Toxicity ([4]; dose of 33.4 mg per kilogram of animal body weight, i.v.): less than 12.5%
signs of shock or pyrogenicity ([4]; eight 30 g mice, i.v. caudal vein, 1 mg in 300 μl PBS): No sign of shock or pyrogenicity
variation in the weight of the mice ([4]; i.v. 1 mg per 30 g mouse, during the study): no significant variation
mice still alive after 30 days ([4]; of eight mice, i.v. 1 mg per 30 g mouse): 8 mice
side-effect on injection ([5]; 400 μg/ml solution, i.v.): muscle tremors
reaction to the injection ([5]; solution diluted 1:40 to 10 μg/ml, one rabbit, in 19 minutes): no reaction to the injection
febrile reaction (increase in temperature greater than 0.5° C.) ([5]; three rabbits, i.v. 400 μg/ml, 10 ml per kilogram, 3 hours): Only one rabbit exhibited an increase in temperature of greater than 0.5 °C

CC(O)(CBr)CCOP(=O)(O)OP(=O)(O)OP(=O)(O)O (stereo not shown) [BrHPPP, 3-(bromomethyl)-3-butanol-1-yl triphosphate]
EC50 [1]: 120 nM

CC(O)(CI)CCOP(=O)(O)OP(=O)(O)OP(=O)(O)O (stereo not shown) [IHPPP, 3-(iodomethyl)-3-butanol-1-yl triphosphate]
EC50 [1]: 70 nM

CC(O)(CBr)CCOP(=O)(O)OP(=O)(O)OP(=O)(O)OCCC(C)(O)CBr (stereo not drawn) [di-BrHTP, α,γ di-[3-(bromomethyl)-3-butanol-1-yl] triphosphate]
EC50 [1]: 3000 nM

isopentenyl pyrophosphate [IPP]
minimum active concentration (no activity demonstrated below) ([6]; best results obtained, prior art compounds): ≥ 3 µM
minimum active concentration relative to natural phosphoantigens [6]: ~1000 times higher
EC50 [1]: 3000 nM
concentration at which active in induced cytotoxicity test ([7]; Tγ9δ2 lymphocyte clone, decreasing concentrations, FIG. 2): ~3000 nM
active concentration relative to the compounds according to the invention ([7]; induced cytotoxicity test): ~300 times higher

α,γ di-[3-(iodomethyl)-3-butanol-1-yl] triphosphate [di-IHTP]
EC50 [1]: 7000 nM
